# Values of other authors, collected in article PMC7763995 (Molecules, 2020).
# Tested on: AChE-induced Aβ aggregation
# Set-up: method as in PMID 12527333
# Details: at 100 μM; cited from earlier work
smiles,measurement,value
"CC[N+](C)(CC)CCC[n+]1c(-c2ccccc2)c2cc(N)ccc2c2ccc(N)cc21 [Propidium, propidium]",Decrease in AChE-induced Aβ aggregation,82%
